Results on 13 compounds are retold here after patent US7342000B2, “Semisynthetic macrolide antibiotics of the azalide series” (GlaxoSmithKline istrazivacki center Zagreb, priority 2002, dated 2008).

What all share (assay): MIC by broth dilution (NCCLS M7-A2)
What all share (format): cell-based
Holding throughout (settings): 90% growth inhibition
In general terms: Dilution methods test growth across graded concentrations, often in twofold steps.

One assay concerns E. coli ATCC 25922. An excerpt:
(§1) MIC levels for all compound were determinated on panel of susceptible, and resistant Gram positive bacterial strains (S. aureus, S. pneumoniae and S. pyogenes) and on Gram negative strains (E. coli, H. influenzae, […], M. catarrhalis).

The next assay concerns E. faecalis ATCC 29212.
From the text: as §1

The subject of the next assay is H. influenzae ATCC 49247.
From the text: as §1

The subject of assay [1] is M. catarrhalis ATCC 23246.
From the text: as §1

A further assay concerns S. aureus ATCC 13709.
From the text: as §1

The subject of the next assay is S. pneumoniae.
From the text: as §1

A further assay deals with S. pyogenes M.
From the text: as §1

Another assay deals with S. pyogenes iMLS.
From the text: as §1

A further assay deals with S. pyogenes.
From the text: as §1

Consider `CC[C@H]1OC(=O)[C@H](C)[C@@H](O[C@H]2C[C@@](C)(OC)[C@@H](O)[C@H](C)O2)[C@H](C)[C@@H](O[C@@H]2O[C@H](C)C[C@H](N(C)C)[C@H]2O)[C@](C)(O)C[C@@H](C)CN(CCCNC(=S)NCCCc2ccccc2)[C@H](C)[C@@H](O)[C@]1(C)O` [Example 7, 9-Deoxo-9-dihydro-9a-N-[N′-(3-phenylpropyl)thiocarbamoyl-γ-aminopropyl]-9a-aza-9a-homoerithromycin A], for which the MIK was 16 µg/mL in the assay on E. coli ATCC 25922; 16 µg/mL in the assay on E. faecalis ATCC 29212; 2 µg/mL in the assay on H. influenzae ATCC 49247; 1 µg/mL in [1]; 1 µg/mL in the assay with S. aureus ATCC 13709; “≦0.125 μg/ml” in the assay on S. pneumoniae. For the same compound, the figures for the MIK in the assay with S. pyogenes M, in the assay with S. pyogenes iMLS and in the assay with S. pyogenes were 8 µg/mL, 4 µg/mL and “≦0.125 μg/ml”, respectively.

Take `CC[C@H]1OC(=O)[C@H](C)[C@@H](O[C@H]2C[C@@](C)(OC)[C@@H](O)[C@H](C)O2)[C@H](C)[C@@H](O[C@@H]2O[C@H](C)C[C@H](N(C)C)[C@H]2O)[C@](C)(O)C[C@@H](C)CN(CCCNC(=O)N(CCC#N)CCCc2ccccc2)[C@H](C)[C@@H](O)[C@]1(C)O` [Example 33, 9-Deoxo-9-dihydro-9a-N-[N′-(β-cyanoethyl)-N′-(3-phenylpropyl)carbamoyl-γ-aminopropyl]-9a-aza-9a-homoerithromycin A]: the MIK in the assay on E. coli ATCC 25922 was 16 µg/mL; with E. faecalis ATCC 29212, 16 µg/mL; in the assay on H. influenzae ATCC 49247, 2 µg/mL; in assay [1], 1 µg/mL; in the assay on S. aureus ATCC 13709, 1 µg/mL; in the assay with S. pneumoniae, “≦0.125 μg/ml”. Besides, the MIK is 8 µg/mL with S. pyogenes M, 4 µg/mL in the assay with S. pyogenes iMLS and “≦0.125 μg/ml” with S. pyogenes.

As for “9-Deoxo-9-dihydro-9a-N-[N′-(β-cyanoethyl)-N′-(2,4-dichlorophenyl)carbamoyl-γ-aminopropyl]-9a-aza-9a-homoerithromycin A [Example 39]”, the MIK is over 64 µg/mL in the assay on E. coli ATCC 25922; over 64 µg/mL with E. faecalis ATCC 29212; 16 µg/mL in the assay on H. influenzae ATCC 49247; 16 µg/mL in assay [1]; 1 µg/mL in the assay with S. aureus ATCC 13709; “≦0.125 μg/ml” with S. pneumoniae. Besides, the figures for the MIK in the assay with S. pyogenes M, in the assay on S. pyogenes iMLS and with S. pyogenes were 64 µg/mL, 32 µg/mL and “≦0.125 μg/ml”, respectively.

As to `CC[C@H]1OC(=O)[C@H](C)[C@@H](O[C@H]2C[C@@](C)(OC)[C@@H](O)[C@H](C)O2)[C@H](C)[C@@H](O[C@@H]2O[C@H](C)C[C@H](N(C)C)[C@H]2O)[C@](C)(O)C[C@@H](C)CN(CCCNC(=S)Nc2cccc3ccccc23)[C@H](C)[C@@H](O)[C@]1(C)O` [Example 5], the MIK was 8 µg/mL in the assay on E. coli ATCC 25922; 4 µg/mL in the assay on E. faecalis ATCC 29212; 2 µg/mL in the assay with H. influenzae ATCC 49247; 2 µg/mL in assay [1]; 2 µg/mL in the assay with S. aureus ATCC 13709; “≦0.125 μg/ml” in the assay with S. pneumoniae. The MIK with S. pyogenes M was 4 µg/mL; in the assay on S. pyogenes iMLS, 4 µg/mL; in the assay with S. pyogenes, “≦0.125 μg/ml”.

Consider “9-Deoxo-9-dihydro-9a-N-[N′-(β-cyanoethyl)-N′-(β-phenylethyl)thiocarbamoyl-γ-aminopropyl]-9a-aza-9a-homoerithromycin A [Example 34]”, for which the MIK in the assay on E. coli ATCC 25922 was 32 µg/mL; in the assay with E. faecalis ATCC 29212, 16 µg/mL; in the assay on H. influenzae ATCC 49247, 2 µg/mL; in assay [1], 1 µg/mL; in the assay with S. aureus ATCC 13709, 1 µg/mL; with S. pneumoniae, “≦0.125 μg/ml”. Besides, the MIK was 8 µg/mL in the assay on S. pyogenes M, 4 µg/mL in the assay with S. pyogenes iMLS and “≦0.125 μg/ml” with S. pyogenes.

“9-Deoxo-9-dihydro-9a-N-{N′-(β-cyanoethyl)-N′-[1-(1-naphtyl)ethyl]carbamoyl-γ-aminopropyl}-9a-aza-9a-homoerithromycin A [Example 36]”: the MIK is 64 µg/mL in the assay with E. coli ATCC 25922; 16 µg/mL in the assay on E. faecalis ATCC 29212; 2 µg/mL in the assay with H. influenzae ATCC 49247; 4 µg/mL in [1]; 2 µg/mL in the assay on S. aureus ATCC 13709; “≦0.125 μg/ml” with S. pneumoniae. Besides, the MIK in the assay on S. pyogenes M was 16 µg/mL; in the assay with S. pyogenes iMLS, 8 µg/mL; with S. pyogenes, “≦0.125 μg/ml”.

As for `CC[C@H]1OC(=O)[C@H](C)[C@@H](O[C@H]2C[C@@](C)(OC)[C@@H](O)[C@H](C)O2)[C@H](C)[C@@H](O[C@@H]2O[C@H](C)C[C@H](N(C)C)[C@H]2O)[C@](C)(O)C[C@@H](C)C(=O)[C@H](C)[C@@H](O)[C@]1(C)O` [Er, erythromycin A, reference compound], the MIK is 32 µg/mL in the assay with E. coli ATCC 25922; 1 µg/mL in the assay with E. faecalis ATCC 29212; 2 µg/mL in the assay with H. influenzae ATCC 49247; 8 µg/mL with S. pyogenes M; over 64 µg/mL in the assay with S. pyogenes iMLS; 0.25 µg/mL with S. pyogenes.

As to `CC[C@H]1OC(=O)[C@H](C)[C@@H](O[C@H]2C[C@@](C)(OC)[C@@H](O)[C@H](C)O2)[C@H](C)[C@@H](O[C@@H]2O[C@H](C)C[C@H](N(C)C)[C@H]2O)[C@](C)(O)C[C@@H](C)CN(CCCNC(=O)Nc2cc(OC)c(OC)c(OC)c2)[C@H](C)[C@@H](O)[C@]1(C)O` [Example 11, 9-Deoxo-9-dihydro-9a-N-[N′-(3,4,5-trimethoxyphenyl)carbamoyl-γ-aminopropyl]-9a-aza-9a-homoerithromycin A], the MIK in the assay on E. coli ATCC 25922 is over 64 µg/mL; in the assay on E. faecalis ATCC 29212, over 64 µg/mL; in the assay on H. influenzae ATCC 49247, 16 µg/mL; in assay [1] it was 16 µg/mL; in the assay with S. aureus ATCC 13709 it was 4 µg/mL; in the assay on S. pneumoniae, “≦0.125 μg/ml”. Also, the MIK is 64 µg/mL with S. pyogenes M, 32 µg/mL in the assay with S. pyogenes iMLS and “≦0.125 μg/ml” in the assay with S. pyogenes.

For “9-Deoxo-9-dihydro-9a-N-[N′-(β-cyanoethyl)-N′-benzylcarbamoyl-γ-aminopropyl]-9a-aza-9a-homoerithromycin A [Example 29]”, the MIK was over 64 µg/mL in the assay on E. coli ATCC 25922; over 64 µg/mL in the assay on E. faecalis ATCC 29212; 32 µg/mL with H. influenzae ATCC 49247; 4 µg/mL in assay [1]; 2 µg/mL with S. aureus ATCC 13709; “≦0.125 μg/ml” in the assay with S. pneumoniae. Further, the MIK was 64 µg/mL in the assay on S. pyogenes M, 16 µg/mL with S. pyogenes iMLS and “≦0.125 μg/ml” in the assay on S. pyogenes.

Consider `CC[C@H]1OC(=O)[C@H](C)[C@@H](O[C@H]2C[C@@](C)(OC)[C@@H](O)[C@H](C)O2)[C@H](C)[C@@H](O[C@@H]2O[C@H](C)C[C@H](N(C)C)[C@H]2O)[C@](C)(O)C[C@@H](C)CN(CCCNC(=S)NCc2ccccc2)[C@H](C)[C@@H](O)[C@]1(C)O` [Example 4, 9-Deoxo-9-dihydro-9a-N-(N′-benzylthiocarbamoyl-γ-aminopropyl)-9a-aza-9a-homoerithromycin A], for which the MIK in the assay on E. coli ATCC 25922 was 16 µg/mL; with E. faecalis ATCC 29212, 8 µg/mL; in the assay on H. influenzae ATCC 49247, 2 µg/mL; in assay [1], 1 µg/mL; in the assay with S. aureus ATCC 13709 it was 2 µg/mL; in the assay on S. pneumoniae, “≦0.125 μg/ml”. For the same compound, the MIK in the assay on S. pyogenes M was 4 µg/mL; in the assay with S. pyogenes iMLS it was 2 µg/mL; in the assay on S. pyogenes, “≦0.125 μg/ml”.

“9-Deoxo-9-dihydro-9a-N-[N′-(β-cyanoethyl)-N′-isopropylcarbamoyl-γ-aminopropyl]-9a-aza-9a-homorithromycin A [Example 27]”: the MIK with E. coli ATCC 25922 was 16 µg/mL; with E. faecalis ATCC 29212, 32 µg/mL; in the assay on H. influenzae ATCC 49247 it was 32 µg/mL; in assay [1], 0.5 µg/mL; in the assay on S. aureus ATCC 13709 it was 4 µg/mL; in the assay with S. pneumoniae, “≦0.125 μg/ml”. Besides, the MIK in the assay with S. pyogenes M was 32 µg/mL; in the assay with S. pyogenes iMLS, 8 µg/mL; with S. pyogenes, “≦0.125 μg/ml”.

For the compound `CC[C@H]1OC(=O)[C@H](C)[C@@H](O[C@H]2C[C@@](C)(OC)[C@@H](O)[C@H](C)O2)[C@H](C)[C@@H](O[C@@H]2O[C@H](C)C[C@H](N(C)C)[C@H]2O)[C@](C)(O)C[C@@H](C)CN(CCCNC(=O)N(CCC#N)c2ccc3ccccc3c2)[C@H](C)[C@@H](O)[C@]1(C)O` [Example 38, 9-Deoxo-9-dihydro-9a-N-[N′-(β-cyanoethyl)-N′-(2-naphtyl)carbamoyl-γ-aminopropyl]-9a-aza-9a-homoerithromycin A], the MIK in the assay with E. coli ATCC 25922 is 32 µg/mL; with E. faecalis ATCC 29212, 8 µg/mL; with H. influenzae ATCC 49247, 2 µg/mL; in assay [1], 0.5 µg/mL; with S. aureus ATCC 13709, 1 µg/mL; with S. pneumoniae, “≦0.125 μg/ml”. Further, the MIK in the assay on S. pyogenes M was 8 µg/mL; in the assay with S. pyogenes iMLS, 2 µg/mL; in the assay with S. pyogenes, “≦0.125 μg/ml”.

For `CC[C@H]1OC(=O)[C@H](C)[C@@H](O[C@H]2C[C@@](C)(OC)[C@@H](O)[C@H](C)O2)[C@H](C)[C@@H](O[C@@H]2O[C@H](C)C[C@H](N(C)C)[C@H]2O)[C@](C)(O)C[C@@H](C)CN(CCCNC(=O)NC(C)C)[C@H](C)[C@@H](O)[C@]1(C)O` [Example 1, 9-Deoxo-9-dihydro-9a-N-(N′-isopropylcarbainoyl-γ-aminopropyl)-9a-aza-9a-homoerithromycin A], the MIK with E. coli ATCC 25922 was 16 µg/mL; in the assay with E. faecalis ATCC 29212 it was 32 µg/mL; in the assay on H. influenzae ATCC 49247, 32 µg/mL; in [1] it was 0.5 µg/mL; in the assay on S. aureus ATCC 13709, 2 µg/mL; in the assay with S. pneumoniae, “≦0.125 μg/ml”. The results for the MIK in the assay with S. pyogenes M, in the assay with S. pyogenes iMLS and in the assay on S. pyogenes were 32 µg/mL, 8 µg/mL and “≦0.125 μg/ml”, respectively.
